Reference: patent EP0908457B1, “3-(1,2-benzisothiazol- and isoxazol-5-Y1)-2,4(1H,3H)-pyrimidinedione or thione and 3-(1,2-benzisothiazol- and isoxazol-5-y1)-4(3H)-pyrimidinone or thione herbicidal agents” (BASF AKTIENGESELLSCHAFT, priority 1997, dated 1999)

What was measured:
[1] = tested on: Echinochloa oryzoides (Ard.) Fritsch.; assay: Preemergence weed control under flooded paddy conditions, ECHORC (Watergrass (Calif.)); type: in vivo; settings: preemergence, flooded paddy; also: meaning of each grade not given here
Cyperus iria = assay: Preemergence weed control under flooded paddy conditions, CYPIR (Rice Flatsedge); type: in vivo; settings: preemergence, flooded paddy; also: meaning of each grade not given here
[2] = tested on: Cyperus serotinus, Rottb.; assay: Preemergence weed control under flooded paddy conditions, CYPSE (Flatsedge); type: in vivo; settings: preemergence; also: meaning of each grade not given here
[3] = tested on: Monochoria vaginalis, Presl.; assay: Preemergence weed control under flooded paddy conditions, MOOVA (Monochoria); type: in vivo; settings: preemergence, flooded paddy; also: meaning of each grade not given here
Sagittaria pygmaea, L. = assay: Preemergence weed control under flooded paddy conditions, SAGPY (Arrowhead (Pygmaea)); type: in vivo; settings: preemergence, flooded paddy; also: meaning of each grade not given here
[4] = tested on: Oryza sativa, (L.) Tebonnet; assay: Rice tolerance to post-transplant applications under flooded paddy conditions (Example 187), ORYSAT (Rice, Tebonnet); settings: for herbicidal effect rating ORYSAT: rated 3-4 weeks after treatment; for herbicidal effect rating, ORYSAT (rice tolerance): rated three to four weeks after treatment; as to herbicidal effect rating ORYSAT: meaning of each grade not given here
[5] = Rate 0.0320 kg/ha, rated 3-4 weeks after treatment
[6] = Rate 0.0620 kg/ha, rated 3-4 weeks after treatment
[7] = Rate 0.1250 kg/ha, rated 3-4 weeks after treatment
[8] = Rate 0.2500 kg/ha, rated 3-4 weeks after treatment
[9] = Rate 0.5000 kg/ha, rated 3-4 weeks after treatment
[10] = 0.0313 kg/ha, rated three to four weeks after treatment
[11] = 0.0625 kg/ha, rated three to four weeks after treatment
[12] = 0.1250 kg/ha, rated three to four weeks after treatment
[13] = 0.2500 kg/ha, rated three to four weeks after treatment

In the case of Cc1ccc(OCC(=O)C(C)(C)C)c(-c2nsc3ccc(-n4c(=O)cc(C(F)(F)F)n(C)c4=O)cc23)c1 [Example 540, 2,4(1H,3H)-Pyrimidinedione, 3-{3-[6-(3,3-dimethyl-2-oxobutoxy)-m-tolyl]-1,2-benzisothiazol-5-yl}-1-methyl-6-(trifluoromethyl)-], the “herbicidal effect rating, ECHORC” value [1, 5] was 2.3, the “herbicidal effect rating, ECHORC” value [1, 6] was 3.4 and the “herbicidal effect rating, ECHORC” value [1, 7] was 4.7. For the same compound, the “herbicidal effect rating, ECHORC” value [1, 8] was 9.0, the “herbicidal effect rating, ECHORC” value [1, 9] was 9.0 and the “herbicidal effect rating, CYPIR” value (Cyperus iria; [5]) was 6.0. For the same compound, the “herbicidal effect rating, CYPIR” value (Cyperus iria; [6]) was 8.0, the “herbicidal effect rating, CYPIR” value (Cyperus iria; [7]) was 9.0 and the “herbicidal effect rating, CYPIR” value (Cyperus iria; [8]) was 9.0. For the same compound, the “herbicidal effect rating, CYPIR” value (Cyperus iria; [9]) was 9.0, the “herbicidal effect rating, CYPSE” value [2, 5] was 0.0 and the “herbicidal effect rating, CYPSE” value [2, 6] was 0.0. For the same compound, the “herbicidal effect rating, CYPSE” value [2, 7] was 0.0, the “herbicidal effect rating, CYPSE” value [2, 8] was 0.0 and the “herbicidal effect rating, CYPSE” value [2, 9] was 3.0. For the same compound, the “herbicidal effect rating, MOOVA” value [3, 5] was 8.0, the “herbicidal effect rating, MOOVA” value [3, 6] was 9.0 and the “herbicidal effect rating, MOOVA” value [3, 7] was 9.0. The “herbicidal effect rating, MOOVA” value [3, 8] was 9.0, the “herbicidal effect rating, MOOVA” value [3, 9] was 9.0 and the “herbicidal effect rating, SAGPY” value (Sagittaria pygmaea, L.; [5]) was 0.0. The “herbicidal effect rating, SAGPY” value (Sagittaria pygmaea, L.; [6]) was 0.0, the “herbicidal effect rating, SAGPY” value (Sagittaria pygmaea, L.; [7]) was 0.0 and the “herbicidal effect rating, SAGPY” value (Sagittaria pygmaea, L.; [8]) was 0.0. For the same compound, the “herbicidal effect rating, SAGPY” value (Sagittaria pygmaea, L.; [9]) was 0.0, the “herbicidal effect rating ORYSAT” value ([4]; Rate 0.0320 kg/ha) was 0.0 and the “herbicidal effect rating ORYSAT” value ([4]; Rate 0.0620 kg/ha) was 0.0. For the same compound, the “herbicidal effect rating ORYSAT” value ([4]; Rate 0.1250 kg/ha) was 0.0, the “herbicidal effect rating ORYSAT” value ([4]; Rate 0.2500 kg/ha) was 1.0 and the “herbicidal effect rating ORYSAT” value ([4]; Rate 0.5000 kg/ha) was 3.0.

For CSCc1nsc2ccc(-n3c(=O)cc(C(F)(F)F)n(C)c3=O)cc12 [Example 21, 1-Methyl-3-{3-{(methylthio)methyl]-1,2-benzisothiazol-5-yl}-6-(trifluoromethyl)-2,4(1H,3H)-pyrimidinedione], the “herbicidal effect rating, ECHORC” value [1, 10] was 0.0, the “herbicidal effect rating, ECHORC” value [1, 11] was 0.7 and the “herbicidal effect rating, ECHORC” value [1, 12] was 2.7. For the same compound, the “herbicidal effect rating, ECHORC” value [1, 13] was 4.7, the “herbicidal effect rating, CYPIR” value (Cyperus iria; [10]) was 0.0 and the “herbicidal effect rating, CYPIR” value (Cyperus iria; [11]) was 0.0. The “herbicidal effect rating, CYPIR” value (Cyperus iria; [12]) was 0.5, the “herbicidal effect rating, CYPIR” value (Cyperus iria; [13]) was 1.0 and the “herbicidal effect rating, CYPSE” value [2, 10] was 0.0. The “herbicidal effect rating, CYPSE” value [2, 11] was 0.0, the “herbicidal effect rating, CYPSE” value [2, 12] was 0.0 and the “herbicidal effect rating, CYPSE” value [2, 13] was 0.0. For the same compound, the “herbicidal effect rating, MOOVA” value [3, 10] was 4.0, the “herbicidal effect rating, MOOVA” value [3, 11] was 6.0 and the “herbicidal effect rating, MOOVA” value [3, 12] was 7.5. For the same compound, the “herbicidal effect rating, MOOVA” value [3, 13] was 9.0, the “herbicidal effect rating, SAGPY” value (Sagittaria pygmaea, L.; [10]) was 0.0 and the “herbicidal effect rating, SAGPY” value (Sagittaria pygmaea, L.; [11]) was 0.0. The “herbicidal effect rating, SAGPY” value (Sagittaria pygmaea, L.; [12]) was 0.0, the “herbicidal effect rating, SAGPY” value (Sagittaria pygmaea, L.; [13]) was 0.0 and the “herbicidal effect rating, ORYSAT (rice tolerance)” value (“herbicidal effect rating, ORYSAT” below) ([4]; 0.0313 kg/ha) was 1.7. For the same compound, the “herbicidal effect rating, ORYSAT” value ([4]; 0.0625 kg/ha) was 2.0, the “herbicidal effect rating, ORYSAT” value ([4]; 0.1250 kg/ha) was 2.3 and the “herbicidal effect rating, ORYSAT” value ([4]; 0.2500 kg/ha) was 4.3.

For Cc1ccc(OCC(=O)OCCC2OCC(C)(C)CO2)c(-c2nsc3ccc(-n4c(=O)cc(C(F)(F)F)n(C)c4=O)cc23)c1 [Example 533, Acetic acid, {{2-{5-[3,6-dihydro-3-methyl-2,6-dioxo-4-(trifluoromethyl)-1(2H)-pyrimidinyl]-1,2-benzisothiazol-3-yl}-p-tolyl}oxy}-, 2-(5,5-dimethyl-m-dioxan-2-yl)ethyl ester], the “herbicidal effect rating, ECHORC” value [1, 5] was 7.5, the “herbicidal effect rating, ECHORC” value [1, 6] was 9.0 and the “herbicidal effect rating, ECHORC” value [1, 7] was 9.0. For the same compound, the “herbicidal effect rating, ECHORC” value [1, 8] was 9.0, the “herbicidal effect rating, CYPIR” value (Cyperus iria; [5]) was 2.0 and the “herbicidal effect rating, CYPIR” value (Cyperus iria; [6]) was 3.0. For the same compound, the “herbicidal effect rating, CYPIR” value (Cyperus iria; [7]) was 4.0, the “herbicidal effect rating, CYPIR” value (Cyperus iria; [8]) was 9.0 and the “herbicidal effect rating, CYPSE” value [2, 5] was 0.0. For the same compound, the “herbicidal effect rating, CYPSE” value [2, 6] was 0.0, the “herbicidal effect rating, CYPSE” value [2, 7] was 3.0 and the “herbicidal effect rating, CYPSE” value [2, 8] was 9.0. The “herbicidal effect rating, MOOVA” value [3, 5] was 9.0, the “herbicidal effect rating, MOOVA” value [3, 6] was 9.0 and the “herbicidal effect rating, MOOVA” value [3, 7] was 9.0. The “herbicidal effect rating, MOOVA” value [3, 8] was 9.0, the “herbicidal effect rating, SAGPY” value (Sagittaria pygmaea, L.; [5]) was 0.0 and the “herbicidal effect rating, SAGPY” value (Sagittaria pygmaea, L.; [6]) was 0.0. The “herbicidal effect rating, SAGPY” value (Sagittaria pygmaea, L.; [7]) was 0.0, the “herbicidal effect rating, SAGPY” value (Sagittaria pygmaea, L.; [8]) was 4.0 and the “herbicidal effect rating ORYSAT” value ([4]; Rate 0.0320 kg/ha) was 3.0. The “herbicidal effect rating ORYSAT” value ([4]; Rate 0.0620 kg/ha) was 4.5, the “herbicidal effect rating ORYSAT” value ([4]; Rate 0.1250 kg/ha) was 5.0 and the “herbicidal effect rating ORYSAT” value ([4]; Rate 0.2500 kg/ha) was 8.0.
